Measurements reported in US12209102B2, “Heterocyclic compounds and uses thereof” (Kumquat Biosciences Inc., priority 2022, dated 2025).

Legend:
K-Ras G12D = molecular target: T1, K-Ras G12D (Homo sapiens, UniProt P01116, G12D); experiment: HTRF resonance energy transfer assay, K-Ras G12D / SOS1 interaction; assay type: biochemical; conditions: HTRF assay of Example 5; read-out: IC50 against K-Ras G12D
T1 construct: made in house; host or cells: E. coli BL21 (DE3)
Summary of the method: (§1)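 Buffer about 5 mM HEPES pH 7.4 with ~150 mM NaCl, ~1 mM DTT, 0.05% BSA, 0.0025% (v/v) Igepal. Protein constructs used at molarity matching the IC50 range studied (e.g. ~500 nM). FRET between tagged K-Ras and hSOS1 measured after short incubation.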

K-Ras G12S = molecular target: T2, K-Ras G12S (Homo sapiens, UniProt P01116, G12S); experiment: HTRF resonance energy transfer assay, K-Ras G12S / SOS1 interaction; assay type: biochemical; conditions: HTRF assay of Example 5; read-out: IC50 against K-Ras G12S
T2 construct: made in house; host or cells: E. coli BL21 (DE3)
Summary of the method: as §1

K-Ras G12V = molecular target: T3, K-Ras G12V (Homo sapiens, UniProt P01116, G12V); experiment: HTRF resonance energy transfer assay, K-Ras G12V / SOS1 interaction; assay type: biochemical; conditions: HTRF assay of Example 5; read-out: IC50 against K-Ras G12V
T3 construct: made in house; host or cells: E. coli BL21 (DE3)
Summary of the method: as §1

K-Ras WT = molecular target: T4, K-Ras WT (Homo sapiens, UniProt P01116); experiment: HTRF resonance energy transfer assay, K-Ras WT / SOS1 interaction; assay type: biochemical; conditions: HTRF assay of Example 5; read-out: IC50 against K-Ras WT
T4 construct: made in house; host or cells: E. coli BL21 (DE3)
Summary of the method: as §1

A549 cells = experiment: Ras cellular assay, growth of cells with K-Ras G12S mutation (CellTiter-Glo); assay type: cell-based; conditions: Homo sapiens, cell growth, Example 9, G12S mutation, read-out: IC50 against A549 cells
Summary of the method: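 Growth inhibition IC50 values come from four-parameter fits of CellTiter-Glo luminescence, read about 6 days after compound addition. G12S-mutant A549 cells (e.g. 800/well, RPMI-1640 + 10% heat-inactivated FBS) were plated in tissue-culture-treated or ultra-low-attachment 384-well format. Dosing began the following day with serial dilutions, e.g. 10 points, 3-fold.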

SW620 cells = experiment: Ras cellular assay, growth of cells with K-Ras G12V mutation (CellTiter-Glo); assay type: cell-based; conditions: Homo sapiens, SW-620; cell growth, Example 9, G12V mutation; read-out: IC50 against SW620 cells
Summary of the method: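 IC50 values came from a four-parameter fit of CellTiter-Glo viability, read roughly 6 days after dosing with e.g. a 10-point threefold dilution series. G12V-mutant SW620 cells (e.g. 800 per well) had been plated the previous day in RPMI-1640/10% heat-inactivated FBS, on tissue culture-treated or ultra-low attachment plates.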

T1 sequence (P01116 1-188 isoform P01116-2 G12D): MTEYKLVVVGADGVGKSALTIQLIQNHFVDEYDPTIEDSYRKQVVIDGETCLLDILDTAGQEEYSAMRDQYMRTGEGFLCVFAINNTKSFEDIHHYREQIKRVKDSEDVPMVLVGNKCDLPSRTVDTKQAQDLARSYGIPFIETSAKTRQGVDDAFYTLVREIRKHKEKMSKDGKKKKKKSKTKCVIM
T4 sequence (P01116 1-188 isoform P01116-2): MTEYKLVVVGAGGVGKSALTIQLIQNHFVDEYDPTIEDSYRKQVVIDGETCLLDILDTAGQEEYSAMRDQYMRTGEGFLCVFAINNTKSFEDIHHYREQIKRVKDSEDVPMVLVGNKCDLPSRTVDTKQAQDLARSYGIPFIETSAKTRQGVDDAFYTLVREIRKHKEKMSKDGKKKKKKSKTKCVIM
T2 sequence (P01116 1-188 isoform P01116-2 G12S): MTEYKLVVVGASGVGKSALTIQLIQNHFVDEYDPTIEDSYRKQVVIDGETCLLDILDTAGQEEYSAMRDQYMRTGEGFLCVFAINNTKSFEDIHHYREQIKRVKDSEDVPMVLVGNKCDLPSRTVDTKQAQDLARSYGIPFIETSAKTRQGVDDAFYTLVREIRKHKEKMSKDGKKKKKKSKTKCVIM
T3 sequence (P01116 1-188 isoform P01116-2 G12V): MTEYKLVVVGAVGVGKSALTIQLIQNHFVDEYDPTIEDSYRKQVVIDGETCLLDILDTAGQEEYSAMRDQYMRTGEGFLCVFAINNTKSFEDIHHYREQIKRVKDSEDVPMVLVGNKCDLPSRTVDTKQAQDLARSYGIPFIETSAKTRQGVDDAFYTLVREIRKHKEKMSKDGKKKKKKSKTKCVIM

IC50 (K-Ras G12D) [nM]	IC50 (K-Ras G12S) [nM]	IC50 (K-Ras G12V) [nM]	IC50 (K-Ras WT) [nM]	IC50 (A549 cells) [nM]	IC50 (SW620 cells) [nM]	SMILES
< 100	< 100	< 100	< 100	< 5000	< 5000	C[C@H]1CN(C2CC2)c2nc(OC[C@@]34CCCN3C[C@H](F)C4)nc3c(F)c(-c4ccc(F)c5sc(N)c(C#N)c45)c(Cl)c(c23)O1 [Compound 1044, 2-amino-4-((6S)-8-chloro-4-cyclopropyl-10-fluoro-2-(((2R,7aS)-2-fluorotetrahydro-1H-pyrrolizin-7a(5H)-yl)methoxy)-6-methyl-5,6-dihydro-4H-[1,4]oxazepino[5,6,7-de]quinazolin-9-yl)-7-fluorobenzo[b]thiophene-3-carbonitrile]
< 100	< 100	< 100	< 100	< 5000	< 5000	C[C@H]1CN(C2CCN(C(=O)C3CC3C#N)CC2)c2nc(OC[C@@]34CCCN3C[C@H](F)C4)nc3c(F)c(-c4ccc(F)c5sc(N)c(C#N)c45)c(Cl)c(c23)O1 (stereo partly drawn) [Compound 1051, 2-amino-4-((6S)-8-chloro-4-(1-(2-cyanocyclopropane-1-carbonyl)piperidin-4-yl)-10-fluoro-2-(((2R,7aS)-2-fluorotetrahydro-1H-pyrrolizin-7a(5H)-yl)methoxy)-6-methyl-5,6-dihydro-4H-[1,4]oxazepino[5,6,7-de]quinazolin-9-yl)-7-fluorobenzo[b]thiophene-3-carbonitrile]
< 100	< 100	< 100	< 100	< 5000	< 5000	N#Cc1c(N)sc2c(F)ccc(-c3c(Cl)c4c5c(nc(OC[C@@]67CCCN6C[C@H](F)C7)nc5c3F)N(C3CCN(C(=O)C(F)F)CC3)CCO4)c12 [Compound 971, 2-amino-4-(8-chloro-4-(1-(2,2-difluoroacetyl)piperidin-4-yl)-10-fluoro-2-(((2R,7aS)-2-fluorotetrahydro-1H-pyrrolizin-7a(5H)-yl)methoxy)-5,6-dihydro-4H-[1,4]oxazepino[5,6,7-de]quinazolin-9-yl)-7-fluorobenzo[b]thiophene-3-carbonitrile]
< 100	< 100	< 100	< 100	< 5000	< 5000	N#Cc1c(N)sc2c(F)ccc(-c3c(Cl)c4c5c(nc(OC[C@@]67CCCN6C[C@H](F)C7)nc5c3F)N(C3CCCN(C=O)CC3)CCO4)c12 (stereo partly drawn) [Compound 601, 2-amino-4-(8-chloro-10-fluoro-2-(((2R,7aS)-2-fluorotetrahydro-1H-pyrrolizin-7a(5H)-yl)methoxy)-4-(1-formylazepan-4-yl)-5,6-dihydro-4H-[1,4]oxazepino[5,6,7-de]quinazolin-9-yl)-7-fluorobenzo[b]thiophene-3-carbonitrile]

More lines, now with the values behind:

SMILES	IC50 (K-Ras G12D) [nM]	IC50 (K-Ras G12S) [nM]	IC50 (K-Ras G12V) [nM]	IC50 (K-Ras WT) [nM]	IC50 (A549 cells) [nM]	IC50 (SW620 cells) [nM]
N#Cc1c(N)sc2c(F)ccc(-c3c(Cl)c4c5c(nc(OC[C@@]67CCCN6C[C@H](F)C7)nc5c3F)N(CC3CCOCC3)CCO4)c12 [Compound 1067, 2-amino-4-(8-chloro-10-fluoro-2-(((2R,7aS)-2-fluorotetrahydro-1H-pyrrolizin-7a(5H)-yl)methoxy)-4-((tetrahydro-2H-pyran-4-yl)methyl)-5,6-dihydro-4H-[1,4]oxazepino[5,6,7-de]quinazolin-9-yl)-7-fluorobenzo[b]thiophene-3-carbonitrile]	< 100	< 100	< 100	< 100	< 5000	< 5000
CC(O)C1C(C)Oc2c(Cl)c(-c3ccc(F)c4sc(N)c(C#N)c34)c(F)c3nc(OC[C@@]45CCCN4C[C@H](F)C5)nc(c23)N1CC(F)F (stereo partly drawn) [Compound 646, 2-amino-4-(8-chloro-4-(2,2-difluoroethyl)-10-fluoro-2-(((2R,7aS)-2-fluorotetrahydro-1H-pyrrolizin-7a(5H)-yl)methoxy)-5-(1-hydroxyethyl)-6-methyl-5,6-dihydro-4H-[1,4]oxazepino[5,6,7-de]quinazolin-9-yl)-7-fluorobenzo[b]thiophene-3-carbonitrile]	< 100	< 100	< 100	< 100	< 5000	< 5000
COC1CCCC1N1CCOc2c(Cl)c(-c3ccc(F)c4sc(N)c(C#N)c34)c(F)c3nc(OC[C@@]45CCCN4C[C@H](F)C5)nc1c23 (stereo partly drawn) [Compound 657, 2-amino-4-(8-chloro-10-fluoro-2-(((2R,7aS)-2-fluorotetrahydro-1H-pyrrolizin-7a(5H)-yl)methoxy)-4-(2-methoxycyclopentyl)-5,6-dihydro-4H-[1,4]oxazepino[5,6,7-de]quinazolin-9-yl)-7-fluorobenzo[b]thiophene-3-carbonitrile]	< 100	< 100	< 100	< 100	< 5000	< 5000
Cc1cc(N)nc(-c2c(Cl)c3c4c(nc(OC[C@@]56CCCN5C[C@H](F)C6)nc4c2F)N(CC(F)F)CCO3)c1I [Compound 909, 6-(8-chloro-4-(2,2-difluoroethyl)-10-fluoro-2-(((2R,7aS)-2-fluorotetrahydro-1H-pyrrolizin-7a(5H)-yl)methoxy)-5,6-dihydro-4H-[1,4]oxazepino[5,6,7-de]quinazolin-9-yl)-5-iodo-4-methylpyridin-2-amine]	< 100	< 100	< 100	< 100	< 5000	< 5000
N#Cc1c(N)sc2c(F)ccc(-c3c(Cl)c4c5c(nc(OC[C@@]67CCCN6C[C@H](F)C7)nc5c3F)N(C3CCCCC3O)CCO4)c12 (stereo partly drawn) [Compound 838, 2-amino-4-(8-chloro-10-fluoro-2-(((2R,7aS)-2-fluorotetrahydro-1H-pyrrolizin-7a(5H)-yl)methoxy)-4-(2-hydroxycyclohexyl)-5,6-dihydro-4H-[1,4]oxazepino[5,6,7-de]quinazolin-9-yl)-7-fluorobenzo[b]thiophene-3-carbonitrile]	< 100	< 100	< 100	< 100	< 5000	< 5000
C[C@H]1COc2c(Cl)c(-c3ccc(F)c4sc(N)c(C#N)c34)c(F)c3nc(OC[C@@]45CCCN4C[C@H](F)C5)nc(c23)N1C1CCN(C(=O)C2CC2C#N)CC1 (stereo partly drawn) [Compound 995, 2-amino-4-((5S)-8-chloro-4-(1-(2-cyanocyclopropane-1-carbonyl)piperidin-4-yl)-10-fluoro-2-(((2R,7aS)-2-fluorotetrahydro-1H-pyrrolizin-7a(5H)-yl)methoxy)-5-methyl-5,6-dihydro-4H-[1,4]oxazepino[5,6,7-de]quinazolin-9-yl)-7-fluorobenzo[b]thiophene-3-carbonitrile]	< 100	< 100	< 100	< 100	< 5000	< 5000
COCCN1CCCOc2c(Cl)c(-c3ccc(F)c4sc(N)c(C#N)c34)c(F)c3nc(OC[C@@]45CCCN4C[C@H](F)C5)nc1c23 [Compound 1201, 2-amino-4-(9-chloro-11-fluoro-2-(((2R,7aS)-2-fluorotetrahydro-1H-pyrrolizin-7a(5H)-yl)methoxy)-4-(2-methoxyethyl)-4,5,6,7-tetrahydro-[1,5]oxazocino[4,3,2-de]quinazolin-10-yl)-7-fluorobenzo[b]thiophene-3-carbonitrile]	< 100	< 100	< 100	< 100	< 5000	< 5000
N#Cc1c(N)sc2c(F)ccc(-c3c(Cl)c4c5c(nc(OC[C@@]67CCCN6C[C@H](F)C7)nc5c3F)N(C3CCCOCC3)CCO4)c12 (stereo partly drawn) [Compound 638, 2-amino-4-(8-chloro-10-fluoro-2-(((2R,7aS)-2-fluorotetrahydro-1H-pyrrolizin-7a(5H)-yl)methoxy)-4-(oxepan-4-yl)-5,6-dihydro-4H-[1,4]oxazepino[5,6,7-de]quinazolin-9-yl)-7-fluorobenzo[b]thiophene-3-carbonitrile]	< 100	< 100	< 100	< 100	< 5000	< 5000
COCC1COc2c(Cl)c(-c3ccc(F)c4sc(N)c(C#N)c34)c(F)c3nc(OC[C@@]45CCCN4C[C@H](F)C5)nc(c23)N1C (stereo partly drawn) [Compound 887, 2-amino-4-(8-chloro-10-fluoro-2-(((2R,7aS)-2-fluorotetrahydro-1H-pyrrolizin-7a(5H)-yl)methoxy)-5-(methoxymethyl)-4-methyl-5,6-dihydro-4H-[1,4]oxazepino[5,6,7-de]quinazolin-9-yl)-7-fluorobenzo[b]thiophene-3-carbonitrile]	< 100	< 100	< 100	< 100	< 5000	< 5000
